Assay results from US9708336B2, “Metallo-beta-lactamase inhibitors” (priority 2014, dated 2017).
Read-outs that look alike come from different tables or passages of the source.

Columns and labels:
[1] = tested on: Serratia marcescens expressing IMP-1 (CL5741); assay: Antibiotic potentiation activity: synergistic concentration (MITC95) with imipenem, OD600 growth; format: cell-based; details: Serratia marcescens CL5741 (IMP-1), 95% growth inhibition
Procedure, shortened: (§1)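 Bacteria were grown overnight on agar at 35 °C, diluted 1:100 from saline into 1.1× CAMHB, then given compound with or without imipenem (4 μg/ml in assay, optionally 1 μg/ml). Endpoint: absorbance at 22–24 h.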

[2] = tested on: Escherichia coli expressing NDM-1 (CLB30016); assay: as above; format: cell-based; details: (CLB30016, NDM-1), 95% growth inhibition
Procedure, shortened: as §1

[3] = tested on: Klebsiella pneumoniae expressing VIM-1 (IHMA599644); assay: as above; format: cell-based; details: Klebsiella pneumoniae IHMA599644 (VIM-1), 95% growth inhibition
Procedure, shortened: as §1

VIM-1 = VIM-1 (Pseudomonas aeruginosa (strain ATCC 15692 / DSM 22644 / CIP 104116 / JCM 14847 / LMG 12228 / 1C / PRS 101 / PAO1), UniProt A0A0F7KYQ8); assay: Enzyme activity: determination of IC50, fluorescence assay with CCF2-FA substrate (VIM-1); format: biochemical; details: CCF2-FA substrate
NDM-1 = NDM-1 (Klebsiella pneumoniae, UniProt C7C422); assay: biochemical; format: biochemical; details: NDM-1 enzyme, CCF2-FA substrate; read-out: NDM-1 IC50
IMP-1 = IMP-1 (Serratia marcescens, UniProt P52699); assay: biochemical; format: biochemical; details: IMP-1 enzyme, CCF2-FA substrate; read-out: IMP-1 IC50
[4] = VIM-1 enzyme, read-out: VIM-1 IC50

Sequence of IMP-1 (P52699 whole entry, looked up): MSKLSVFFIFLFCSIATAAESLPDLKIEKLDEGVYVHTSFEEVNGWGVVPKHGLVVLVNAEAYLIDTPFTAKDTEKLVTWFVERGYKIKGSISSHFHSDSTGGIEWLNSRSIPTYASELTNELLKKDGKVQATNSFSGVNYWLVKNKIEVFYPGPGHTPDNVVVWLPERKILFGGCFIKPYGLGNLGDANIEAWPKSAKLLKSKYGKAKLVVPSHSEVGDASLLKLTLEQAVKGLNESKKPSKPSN
Sequence of NDM-1 (C7C422 whole entry, looked up, species assumed): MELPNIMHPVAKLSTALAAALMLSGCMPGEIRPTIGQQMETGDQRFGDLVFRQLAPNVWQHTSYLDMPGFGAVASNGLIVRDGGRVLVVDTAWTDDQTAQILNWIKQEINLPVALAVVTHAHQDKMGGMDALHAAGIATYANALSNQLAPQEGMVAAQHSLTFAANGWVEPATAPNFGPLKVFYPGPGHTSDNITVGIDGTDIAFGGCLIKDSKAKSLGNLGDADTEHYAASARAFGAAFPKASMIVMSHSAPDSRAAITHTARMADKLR

Row | SMILES | Serratia marcescens MITC95 [1] [µM] | Escherichia coli MITC95 [2] [µM] | Klebsiella pneumoniae MITC95 [3] [µM] | IC50 (VIM-1; [4]) [nM] | IC50 (NDM-1) [nM] | IC50 (IMP-1) [nM] | IC50 (VIM-1; VIM-1 IC50, VIM-1 enzyme) [nM]
1 | Nc1nc2cccc(-c3ccc(C(F)(F)F)c(S(N)(=O)=O)c3-c3nnn[nH]3)c2[nH]1 [Example 551, 3-(2-amino-3H-benzimidazol-4-yl)-2-(1H-tetrazol-5-yl)-6-(trifluoromethyl)benzenesulfonamide] | 0.7813 | 0.3906 | 1.563 | 0.26 | 0.142 | 3.8 | 
2 | Nc1nc2ccc(-c3ccc(C(F)(F)F)c(S(N)(=O)=O)c3-c3nnn[nH]3)cc2[nH]1 [Example 552, 3-(2-amino-3H-benzimidazol-5-yl)-2-(1H-tetrazol-5-yl)-6-(trifluoromethyl)benzenesulfonamide] | 1.563 | 0.3906 | 1.563 |  | 1.32 | 7.2 | 0.262
3 | Nc1nc2cccc(-c3ccc(C(F)(F)F)c(S(N)(=O)=O)c3-c3nnn[nH]3)c2s1 [Example 553, 3-(2-amino-1,3-benzothiazol-7-yl)-2-(1H-tetrazol-5-yl)-6-(trifluoromethyl)benzenesulfonamide] | 3.125 | 3.125 | 3.125 | 0.0624 | 0.0499 | 0.959 | 
4 | Nc1ccc2cccc(-c3ccc(C(F)(F)F)c(S(N)(=O)=O)c3-c3nn[nH]n3)c2n1 [Example 554, 3-(2-amino-8-quinolyl)-2-(2H-tetrazol-5-yl)-6-(trifluoromethyl)benzenesulfonamide] | 1.563 | 3.125 | 3.125 | 0.363 | 0.115 | 0.818 | 
5 | Nc1ncc2c(-c3ccc(C(F)(F)F)c(S(N)(=O)=O)c3-c3nn[nH]n3)cccc2n1 [Example 556, 3-(2-aminoquinazolin-5-yl)-2-(2H-tetrazol-5-yl)-6-(trifluoromethyl)benzenesulfonamide] | 12.5 | 25 | 12.5 | 0.122 | 0.125 | 2.97 | 
6 | Nc1ncc2cccc(-c3ccc(C(F)(F)F)c(S(N)(=O)=O)c3-c3nn[nH]n3)c2n1 [Example 558, 3-(2-aminoquinazolin-8-yl)-2-(2H-tetrazol-5-yl)-6-(trifluoromethyl)benzenesulfonamide] | 6.25 | 6.25 | 6.25 | 0.178 | 0.145 | 1.96 | 
7 | NS(=O)(=O)c1c(C(F)(F)F)ccc(-c2ccc(-c3c[nH]c(O)n3)cc2)c1-c1nnn[nH]1.O=C(O)C(F)(F)F [Example 559, 3-[4-(2-hydroxy-1H-imidazol-4-yl)phenyl]-2-(1H-tetrazol-5-yl)-6-(trifluoromethyl)benzenesulfonamide] | 6.25 | 12.5 | 12.5 | 0.212 | 0.439 | 0.534 | 
8 | Cn1c(-c2ccc(-c3ccc(C(F)(F)F)c(S(N)(=O)=O)c3-c3nnn[nH]3)cc2)cnc1N.O=C(O)C(F)(F)F [Example 560, 3-[4-(2-amino-3-methyl-imidazol-4-yl)phenyl]-2-(1H-tetrazol-5-yl)-6-(trifluoromethyl)benzenesulfonamide] | 3.125 | 6.25 | 6.25 | 0.212 | 0.727 | 0.898 | 
9 | Nc1nc2c(-c3ccc(C(F)(F)F)c(S(N)(=O)=O)c3-c3nnn[nH]3)cccc2s1 [Example 561, 3-(2-aminobenzo[d]thiazol-4-yl)-2-(1H-tetrazol-5-yl)-6-(trifluoromethyl)benzenesulfonamide] | 0.09375 | 0.668 | 2.563 | 0.434 | 0.153 | 0.993 | 
10 | Nc1ccc(-c2ccc(C(F)(F)F)c(S(N)(=O)=O)c2-c2nnn[nH]2)nc1 [Example 562, 3-(5-aminopyridin-2-yl)-2-(1H-tetrazol-5-yl)-6-(trifluoromethyl)benzenesulfonamide] | 0.3906 | 0.5859 | 3.125 | 2.35 | 5 | 7.55 | 
11 | N=C(NC1CNC1)c1ccc(-c2ccc(C(F)(F)F)c(S(N)(=O)=O)c2-c2nn[nH]n2)cc1 [Example 563, N-(azetidin-3-yl)-3′-sulfamoyl-2′-(2H-tetrazol-5-yl)-4′-(trifluoromethyl)biphenyl-4-carboximidamide] | 6.25 | 3.125 | 3.125 | 5.02 | 53.8 | 45.9 | 
12 | N=C(NC1CCNC1)c1ccc(-c2ccc(C(F)(F)F)c(S(N)(=O)=O)c2-c2nn[nH]n2)cc1 (stereo not drawn) [Example 564, N-(pyrrolidin-3-yl)-3′-sulfamoyl-2′-(2H-tetrazol-5-yl)-4′-(trifluoromethyl)biphenyl-4-carboximidamide] | 25 | 25 | 50 | 36.3 | 262 | 301 | 
13 | N=C(NCCCN)c1ccc(-c2ccc(C(F)(F)F)c(S(N)(=O)=O)c2-c2nn[nH]n2)cc1 [Example 565, N-(3-aminopropyl)-3′-sulfamoyl-2′-(2H-tetrazol-5-yl)-4′-(trifluoromethyl)biphenyl-4-carboximidamide] | 25 | 12.5 | 12.5 | 11.3 | 187 | 200 | 
14 | Nc1nc2cc(F)cc(-c3ccc(C(F)(F)F)c(S(N)(=O)=O)c3-c3nnn[nH]3)c2[nH]1 [Example 566, 3-(2-amino-5-fluoro-1H-benzo[d]imidazol-7-yl)-2-(1H-tetrazol-5-yl)-6-(trifluoromethyl)benzenesulfonamide] | 3.125 | 0.7813 | 3.125 | 0.508 | 0.233 | 2.68 | 
15 | Nc1nc2cc(C(F)(F)F)cc(-c3ccc(C(F)(F)F)c(S(N)(=O)=O)c3-c3nnn[nH]3)c2[nH]1 [Example 567] | 6.25 | 3.125 | 6.25 | 0.225 | 0.299 | 3.77 | 
16 | Cc1ccc(-c2ccc(C(F)(F)F)c(S(N)(=O)=O)c2-c2nnn[nH]2)c2[nH]c(N)nc12 [Example 568, 3-(2-amino-4-methyl-1H-benzo[d]imidazol-7-yl)-2-(1H-tetrazol-5-yl)-6-(trifluoromethyl)benzenesulfonamide] | 1.563 | 0.3906 | 1.563 | 0.161 | 0.0983 | 1.17 | 
17 | N#Cc1cc(-c2ccc(C(F)(F)F)c(S(N)(=O)=O)c2-c2nnn[nH]2)c2[nH]c(N)nc2c1 [Example 569, 3-(2-amino-5-cyano-1H-benzo[d]imidazol-7-yl)-2-(1H-tetrazol-5-yl)-6-(trifluoromethyl)benzenesulfonamide] | 3.125 | 6.25 | 6.25 | 0.309 | 0.215 | 1.62 | 
18 | Nc1nc2nccc(-c3ccc(C(F)(F)F)c(S(N)(=O)=O)c3-c3nnn[nH]3)c2[nH]1 [Example 570, 3-(2-amino-1H-imidazo[4,5-b]pyridin-7-yl)-2-(1H-tetrazol-5-yl)-6-(trifluoromethyl)benzenesulfonamide] | 6.25 | 3.125 | 6.25 | 0.49 | 0.33 | 4.06 | 
19 | Cc1nc(N)ccc1Cc1cccc(S(N)(=O)=O)c1-c1nn[nH]n1 [Example 572, 3-((6-amino-2-methylpyridin-3-yl)methyl)-2-(2H-tetrazol-5-yl)benzenesulfonamide] | 25 | 0.5859 | 6.25 | 8.98 | 14.7 | 701 | 
20 | Cc1cc(N)ncc1Cc1cccc(S(N)(=O)=O)c1-c1nn[nH]n1 [Example 573, 3-((6-amino-4-methylpyridin-3-yl)methyl)-2-(2H-tetrazol-5-yl)benzenesulfonamide] | 12.5 | 0.7813 | 12.5 | 41.4 | 38.6 | 668 | 
